# Laboratory results published in patent publication US7671054B1, “Reverse-turn mimetics and method relating thereto” (Choongwae Pharma Corporation, priority 2001, dated 2010).
# Test system: cultured tumor cells
# Experiment: FACS analysis, cells in G0
# Format: cell-based
# Conditions: 5 μM
smiles,measurement,value
O=C1[C@H](Cc2ccc(O)cc2)N2C(=O)CCN(C(=O)NCc3ccccc3)[C@H]2CN1Cc1cccc2ccccc12 [Compound D],number of cells in G0 (FACS),increases the number of cells in G0
